In ChEMBL document CHEMBL3228036, “A new chemical series active against African trypanosomes: benzyltriphenylphosphonium salts” (J Med Chem, 1979) one finds Activity data, which are given here for 20 compounds.

Data set [1] has as its system Mus musculus. The data set can be described thus: Toxicity in Trypanosoma brucei rhodesiense Wellcome CT infected ICR/HA mouse assessed as mortality at 424 mg/kg, po treated within 2 hrs of parasite infection measured up to 30 days. Format: organism-based. Set-up: dose 424 mg/kg, route oral. As to conditions: in vivo.
Data set [2] deals with Mus musculus. The data set can be described thus: Toxicity in Trypanosoma brucei rhodesiense Wellcome CT infected ICR/HA mouse assessed as mortality at 424 mg/kg, sc treated within 2 hrs of parasite infection measured up to 30 days. The data set is classed as organism-based. Also noted: dose 424 mg/kg, route subcutaneous. As to conditions: in vivo.
Data set [3] concerns Mus musculus. The data set can be described thus: Toxicity in Trypanosoma brucei rhodesiense Wellcome CT infected ICR/HA mouse assessed as mortality at 212 mg/kg, sc treated within 2 hrs of parasite infection measured up to 30 days. The data set is classed as organism-based. Also noted: dose 212 mg/kg, route subcutaneous. As to conditions: in vivo.
The subject of data set [4] is Trypanosoma brucei rhodesiense. The data set can be described thus: […] activity against Trypanosoma brucei rhodesiense Wellcome CT infected in ICR/HA mouse assessed as curated mouse at 424 mg/kg, sc treated within 2 hrs of parasite infection measured up to 30 days. The data set is classed as functional, organism-based. Also noted: dose 424 mg/kg.
In data set [5] the test system is Trypanosoma brucei rhodesiense. The data set is described as follows: […] activity against Trypanosoma brucei rhodesiense Wellcome CT infected in ICR/HA mouse assessed as curated mouse at 212 mg/kg, sc treated within 2 hrs of parasite infection measured up to 30 days. The data set is classed as functional, organism-based. Set-up: dose 212 mg/kg.
For data set [6], the system named is Trypanosoma brucei rhodesiense. The data set can be described thus: […] activity against Trypanosoma brucei rhodesiense Wellcome CT infected in ICR/HA mouse assessed as curated mouse at 26.5 mg/kg, sc treated within 2 hrs of parasite infection measured up to 30 days. The data set is classed as functional.
The subject of data set [7] is Trypanosoma brucei rhodesiense. The data set is described as follows: […] activity against Trypanosoma brucei rhodesiense Wellcome CT infected in ICR/HA mouse assessed as curated mouse at 13.3 mg/kg, sc treated within 2 hrs of parasite infection measured up to 30 days. Also noted: dose 13.3 mg/kg. Format: functional, organism-based.
Data set [8] relates to Trypanosoma brucei rhodesiense. The data set can be described thus: […] activity against Trypanosoma brucei rhodesiense Wellcome CT infected in ICR/HA mouse assessed as curated mouse at 424 mg/kg, po treated within 2 hrs of parasite infection measured up to 30 days. The data set is classed as functional, organism-based. Also noted: dose 424 mg/kg.
In data set [9] the test system is Trypanosoma brucei rhodesiense. The data set is described as follows: […] activity against Trypanosoma brucei rhodesiense Wellcome CT infected in ICR/HA mouse assessed as curated mouse at 212 mg/kg, po treated within 2 hrs of parasite infection measured up to 30 days. The data set is classed as functional, organism-based. Also noted: dose 212 mg/kg.
Data set [10] deals with Trypanosoma brucei rhodesiense. The data set is described as follows: […] activity against Trypanosoma brucei rhodesiense Wellcome CT infected in ICR/HA mouse assessed as curated mouse at 106 mg/kg, sc treated within 2 hrs of parasite infection measured up to 30 days. Also noted: dose 106 mg/kg. Format: functional, organism-based.
Data set [11] concerns Trypanosoma brucei rhodesiense. The data set can be described thus: […] activity against Trypanosoma brucei rhodesiense Wellcome CT infected in ICR/HA mouse assessed as curated mouse at 106 mg/kg, po treated within 2 hrs of parasite infection measured up to 30 days. Format: functional, organism-based. Set-up: dose 106 mg/kg.
In data set [12] the test system is Trypanosoma brucei rhodesiense. The data set can be described thus: […] activity against Trypanosoma brucei rhodesiense Wellcome CT infected in ICR/HA mouse assessed as curated mouse at 53 mg/kg, sc treated within 2 hrs of parasite infection measured up to 30 days. Also noted: dose 53 mg/kg. Format: functional, organism-based.
For data set [13], the system named is Trypanosoma brucei rhodesiense. The data set can be described thus: […] activity against Trypanosoma brucei rhodesiense Wellcome CT infected in ICR/HA mouse assessed as curated mouse at 53 mg/kg, po treated within 2 hrs of parasite infection measured up to 30 days. The data set is classed as functional, organism-based. Also noted: dose 53 mg/kg.

Data set [14] relates to Trypanosoma brucei rhodesiense. The data set can be described thus: […] activity against Trypanosoma brucei rhodesiense Wellcome CT infected in ICR/HA mouse assessed as curated mouse at 26.5 mg/kg, po treated within 2 hrs of parasite infection measured up to 30 days. The data set is classed as functional, organism-based. Set-up: dose 26.5 mg/kg.
Data set [15] concerns Trypanosoma brucei rhodesiense. The data set can be described thus: […] activity against Trypanosoma brucei rhodesiense Wellcome CT infected in ICR/HA mouse assessed as curated mouse at 13.3 mg/kg, po treated within 2 hrs of parasite infection measured up to 30 days. Format: functional, organism-based. Also noted: dose 13.3 mg/kg.
The subject of data set [16] is Trypanosoma brucei rhodesiense. The data set is described as follows: […] activity against Trypanosoma brucei rhodesiense Wellcome CT infected in ICR/HA mouse assessed as curated mouse at 6.5 mg/kg, sc treated within 2 hrs of parasite infection measured up to 30 days. The data set is classed as functional, organism-based. Also noted: dose 6.5 mg/kg.
The subject of data set [17] is Mus musculus. The data set can be described thus: Toxicity in Trypanosoma brucei rhodesiense Wellcome CT infected ICR/HA mouse assessed as mortality at 212 mg/kg, po treated within 2 hrs of parasite infection measured up to 30 days. The settings on record: in vivo. The data set is classed as organism-based. Also noted: dose 212 mg/kg, route oral.

Each structure is given as a SMILES string. Calls of active or inactive are those of the source. The calls are words filed in the database; no cut-off is given here.

In the case of `Cc1ccccc1C[P+](c1ccccc1)(c1ccccc1)c1ccccc1.[Br-]`, the Activity entry in data set [1], in data set [2] and in [3] was “Toxic” in each case.
`CCOc1ccc(C[P+](c2ccccc2)(c2ccccc2)c2ccccc2)cc1.[Cl-]`: the result in data set [4], in data set [5], in [6] and in [7] was inactive. The Activity entry in data set [2] and in data set [3] was “Toxic” throughout.
`Cc1ccc(C[P+](c2ccccc2)(c2ccccc2)c2ccccc2)cc1`: the result in [4], in [8], in data set [5], in data set [9], in [10] and in data set [11] was inactive. Moreover, the outcome in data set [12], in [13], in data set [6], in data set [14], in [7] and in [15] was inactive. The outcome in data set [16] was inactive.
With `C=CC[P+](c1ccccc1)(c1ccccc1)c1ccccc1.[Br-]`, the result in [4], in data set [8], in [6] and in [7] was inactive. In addition, in [2], the Activity entry is listed as “Toxic”.
Take `COC(=O)c1ccccc1C[P+](c1ccccc1)(c1ccccc1)c1ccccc1`: the result in data set [6] and in data set [7] was inactive.
`N=C(N)c1ccc(/C=C/c2ccc(C(=N)N)cc2O)cc1` [HYDROXYSTILBAMIDINE]: the Activity in [6] (route subcutaneous) worked out at 71%.
`Clc1ccccc1C[P+](c1ccccc1)(c1ccccc1)c1ccccc1.[Cl-]`: the outcome in data set [4], in data set [8], in data set [5], in data set [9], in [11] and in [13] was inactive. Also, the result in data set [14], in data set [7] and in [15] was inactive. Also, the Activity result in [1], in data set [17], in data set [2] and in data set [3] was “Toxic” in each case.
For the compound `CCCCCCCCCCCC[P+](c1ccccc1)(c1ccccc1)c1ccccc1`, the result in data set [4], in [8], in data set [5], in [10] and in [6] was inactive.
Turning to `Cc1ccccc1[P+](Cc1ccccc1)(c1ccccc1)c1ccccc1C.[Cl-]`, the result in [4], in data set [8], in [5], in data set [9], in data set [13] and in data set [7] was inactive. Further, in [15], the outcome was inactive. The Activity result in [17], in data set [2] and in data set [3] was “Toxic” in each case.
In the case of `CC(C)(C)c1cc(C[P+](c2ccccc2)(c2ccccc2)c2ccccc2)cc(C(C)(C)C)c1O.[Br-]`, the result in data set [4], in [8], in data set [5], in [9], in data set [10] and in [11] was inactive. The result in data set [12], in data set [13], in data set [6], in data set [14], in data set [7] and in data set [15] was inactive. The Activity entry in data set [17] was “Toxic”.
On to `Cc1ccc(C[P+](c2ccccc2)(c2ccccc2)c2ccccc2)cc1.[Cl-]`, for which the Activity is given as 20% in data set [6] (route subcutaneous) and “Toxic” in data set [2].
With `Cc1ccccc1C[P+](c1ccccc1)(c1ccccc1)c1ccccc1.[Cl-]`, the Activity in data set [6] (route subcutaneous) was 40%; in data set [2] it was “Toxic”; in [3], “Toxic”.
As for `Cc1ccc(C[P+](c2ccccc2)(c2ccccc2)c2ccccc2)cc1.[Br-]`, the Activity result in [1], in [17], in data set [2] and in data set [3] was “Toxic” in each case.
For `[Br-].c1ccc([P+](Cc2cccc3cccnc23)(c2ccccc2)c2ccccc2)cc1`, the outcome in data set [4], in data set [12], in [6] and in [7] was inactive. For the same compound, the Activity result in data set [2] is listed as “Toxic”.
For `Cc1cccc([P+](Cc2ccccc2)(c2cccc(C)c2)c2cccc(C)c2)c1.[Cl-]`, the result in data set [4], in data set [10], in [11], in [13], in data set [14] and in [7] was inactive. Further, the outcome in [15] was inactive. Further, the Activity entry in data set [2] is reported as “Toxic”.
Consider `Clc1ccc(OC[P+](c2ccccc2)(c2ccccc2)c2ccccc2)cc1.[Cl-]`, for which the result in [4], in data set [8], in data set [6] and in data set [7] was inactive. Further, the Activity result in data set [2] is recorded as “Toxic”.
As to `Cc1ccccc1C[P+](c1ccccc1)(c1ccccc1)c1ccccc1`, the outcome in [4], in data set [8], in data set [5], in data set [9], in data set [10] and in data set [11] was inactive. For the same compound, the result in data set [12], in [13], in data set [6], in [14], in data set [7] and in data set [15] was inactive.
Turning to `Cc1ccccc1[P+](Cc1ccccc1)(c1ccccc1C)c1ccccc1C.[Cl-]`, the outcome in data set [4], in [8], in data set [10], in [11], in data set [6] and in [14] was inactive. Also, the result in data set [7] and in [15] was inactive. In addition, the Activity entry in data set [1] and in data set [2] was “Toxic” in each case.
Consider `[I-].c1ccc(CC(c2ccccc2)[P+](c2ccccc2)(c2ccccc2)c2ccccc2)cc1` (stereo not drawn), for which the outcome in data set [4], in data set [8], in data set [10], in data set [6] and in data set [7] was inactive. Also, in [2], the Activity result is listed as “Toxic”.
Regarding `[Br-].c1ccc([P+](c2ccccc2)(c2ccccc2)c2ccccc2)cc1` [TETRAPHENYLPHOSPHONIUM BROMIDE], the result in data set [4], in data set [8], in data set [5], in data set [10] and in [6] was inactive. Moreover, the Activity entry in data set [2] and in [3] was “Toxic” in each case.
